Measured values reported in patent US12358919B2, “Antibacterial compounds” (Universita' degli Studi di Siena, priority 2019, dated 2025).
Where two headings read alike, the source gives them in different places.

Experiments:
Assay type in all cases: cell-based
Escherichia coli CCUG^T = assay: microbe, parasite or virus in culture; conditions: for Potentiation fold: ratio MICcompound/MICcompound+polymyxin E; for MIC in presence of colistin: with 0.25xMIC polymyxin E1 (0.12 mg/L); for MIC: Escherichia coli
Procedure: (§1) Growth inhibition or killing of bacteria was investigated using conventional methods widely described in the scientific literature. Parameters such as the Minimum Inhibitory Concentration (MIC) were determined as described in Clinical Laboratory Standard Institute (CLSI) document M07 “Methods for Dilution Antimicrobial Susceptibility Tests for Bacteria That Grow Aerobically, 11th Edition” (2018). Synergistic activity of the compounds described in the present specification were determined by measuring the variation of the MIC's compound in the absence and presence of a sub-inhibitory concentration of a suitable antibacterial agent, such as polymyxin E1. Furthermore, the Fractional Inhibitory Concentrations (FICs) were measured using a chequerboard analysis to determine the average FIC index (FICI), whose value is known to characterize the interaction between two compounds and/or drugs (≤0.5, synergistic interaction; >0.5 and <2, no interaction, additive effect; ≥2, antagonistic interaction). Furthermore, the selectivity of the compounds was investigated by measuring their cytotoxic effect on mammalian cell lines (e.g. HeLa cells).
(§2) Several methods were used to investigate the synergistic activity of the compounds, including (a) the determination of the MIC in the presence of a sub-inhibitory concentration of a suitable antibacterial agent, (b) the determination of the average FICI using a chequerboard analysis and (c) the time-kill curve analysis of a suitable agent (at a sub-inhibitory concentration) in the absence and presence of the pyrazolo[4,3-b]pyridin-6-carboxamide compound at a fixed concentration of 2 or 8 mg/L.
(§3) The MIC of the compound was determined alone and in the presence of a fixed and sub-inhibitory concentration of a suitable antibacterial agent of the polymyxin class, such as polymyxin E1 (colistin). The potentiation fold was computed as the ratio MICcompound/MICcompound+polymyxin E. Tested organisms included Escherichia coli CCUG^TKlebsiella pneumoniae ATCC 13833 and Acinetobacter baumannii ATCC 17978, which show a colistin MIC of 0.5, 0.5 and 1 mg/L, respectively.

[1] = tested on: Acinetobacter baumannii ATCC 17978; assay: microbe, parasite or virus in culture; conditions: for Potentiation fold: ratio MICcompound/MICcompound+polymyxin E; for MIC in presence of colistin: with 0.25xMIC polymyxin E1 (0.25 mg/L); for MIC: Acinetobacter baumannii, ATCC17978
Procedure: as §1, §2, §3

[2] = tested on: Klebsiella pneumoniae ATCC 13833; assay: microbe, parasite or virus in culture; conditions: for Potentiation fold: ratio MICcompound/MICcompound+polymyxin E; for MIC in presence of colistin: with 0.25xMIC polymyxin E1 (0.12 mg/L); for MIC: Klebsiella pneumoniae, ATCC13833
Procedure: as §1, §2, §3

[3] = tested on: Bacillus subtilis ATCC 6633; assay: MIC, broth microdilution (direct antibacterial activity); conditions: ATCC6633, B. subtilis ATCC 6633, compound alone, 18-24 h, read-out: MIC
Procedure: as §1
(§4) The MIC values were determined using the broth microdilution method as described in document M07 using Mueller-Hinton broth as culture medium and an initial bacterial inoculum size of 5×10^5 CFU/mL, with a final volume of 100 μL per well in a 96-well microplate. Bacterial strains were Bacillus subtilis ATCC 6633, Enterococcus faecalis ATCC 29212, Streptococcus pyogenes ATCC 12344 and Staphylococcus aureus ATCC 25923. The tested compound concentration ranged from 512 to 0.25 mg/L. Plates were incubated for 18-24 hours at 35±2° C. prior to results analysis.

[4] = tested on: Staphylococcus aureus ATCC 25923; assay: as above; conditions: ATCC25923, S. aureus ATCC 25923, compound alone, 18-24 h, read-out: MIC
Procedure: as §1, §4

[5] = tested on: Enterococcus faecalis ATCC 29212; assay: as above; conditions: ATCC29212, E. faecalis ATCC 29212, compound alone, 18-24 h, read-out: MIC
Procedure: as §1, §4

[6] = tested on: Streptococcus pyogenes ATCC 12344; assay: as above; conditions: ATCC12344, S. pyogenes ATCC 12344, compound alone, 18-24 h, read-out: MIC
Procedure: as §1, §4

[7] = E. coli CCUG^T, compound alone, read-out: MIC
[8] = A. baumannii ATCC 17978, compound alone, read-out: MIC
[9] = K. pneumoniae ATCC 13833, compound alone, read-out: MIC

## CCCCn1c(=O)c(C(=O)NC(C)(C)C)c(O)c2nn(CC)cc21 [Iw, 4-(1-Butyl)-4,5-dihydro-N-(1,1-dimethylethyl)-2-ethyl-7-hydroxy-5-oxo-2H-pyrazolo[4,3-b]pyridin-6-carboxamide]
Escherichia coli CCUG^T; E. coli CCUG^T
  Potentiation fold: ≥32
  MIC in presence of colistin: 16 µg/mL
Escherichia coli CCUG^T; [7]
  MIC: > 512 µg/mL
[1]; A. baumannii ATCC 17978
  Potentiation fold: ≥8
  MIC in presence of colistin: 64 µg/mL
[1]; [8]
  MIC: > 512 µg/mL
[2]; K. pneumoniae ATCC 13833
  Potentiation fold: ≥16
  MIC in presence of colistin: 32 µg/mL
[2]; [9]
  MIC: > 512 µg/mL

## CCCCn1c(=O)c(C(=O)NC2CCCC2)c(O)c2nn(C)cc21 [Iag, 4-(1-Butyl)-N-cyclopentyl-4,5-dihydro-7-hydroxy-2-methyl-5-oxo-2H-pyrazolo-[4,3-b]pyridin-6-carboxamide]
Escherichia coli CCUG^T; E. coli CCUG^T
  Potentiation fold: ≥16
  MIC in presence of colistin: 32 µg/mL
Escherichia coli CCUG^T; [7]
  MIC: > 512 µg/mL
[1]; A. baumannii ATCC 17978
  Potentiation fold: ≥4
  MIC in presence of colistin: 128 µg/mL
[1]; [8]
  MIC: > 512 µg/mL
[2]; K. pneumoniae ATCC 13833
  Potentiation fold: ≥8
  MIC in presence of colistin: 64 µg/mL
[2]; [9]
  MIC: > 512 µg/mL

## CCCCCn1c(=O)c(C(=O)NC23CC4CC(CC(O)(C4)C2)C3)c(O)c2nn(CCO)cc21 [Io, 4,5-Dihydro-7-hydroxy-N-(1-hydroxyadamantan-3-yl)-2-(2-hydroxyethyl)-5-oxo-4-(1-pentyl)-2H-pyrazolo[4,3-b]pyridin-6-carboxamide]
Escherichia coli CCUG^T
  MIC: > 512 µg/mL
[1]; A. baumannii ATCC 17978
  Potentiation fold: ≥128
  MIC in presence of colistin: 4 µg/mL
[1]
  MIC: > 512 µg/mL
[2]; K. pneumoniae ATCC 13833
  Potentiation fold: ≥64
  MIC in presence of colistin: 8 µg/mL
[2]
  MIC: > 512 µg/mL

## CCCCn1c(=O)c(C(=O)N[C@@H](Cc2ccccc2)C(=O)OC(C)(C)C)c(O)c2nn(C)cc21 [Iad, 1,1-Dimethylethyl (S)-2-[4-(1-butyl)-4,5-dihydro-7-hydroxy-2-methyl-5-oxo-2H-pyrazolo[4,3-b]pyridin-6-carboxamido]-3-phenylpropanoate]
[3]
  MIC: 32 µg/mL
[4]
  MIC: 256 µg/mL
[5]
  MIC: 128 µg/mL
[6]
  MIC: 64 µg/mL
Escherichia coli CCUG^T; E. coli CCUG^T
  Potentiation fold: ≥16
  MIC in presence of colistin: 32 µg/mL
Escherichia coli CCUG^T; [7]
  MIC: > 512 µg/mL
[1]; A. baumannii ATCC 17978
  Potentiation fold: ≥4
  MIC in presence of colistin: 128 µg/mL
[1]; [8]
  MIC: > 512 µg/mL
[2]; K. pneumoniae ATCC 13833
  Potentiation fold: ≥16
  MIC in presence of colistin: 32 µg/mL
[2]; [9]
  MIC: > 512 µg/mL

## CCCCn1c(=O)c(C(=O)NC2CCCCCCC2)c(O)c2nn(C)cc21 [Is, 4-(1-Butyl)-N-cyclooctyl-4,5-dihydro-7-hydroxy-2-methyl-5-oxo-2H-pyrazolo[4,3-b]pyridin-6-carboxamide]
[3]
  MIC: 32 µg/mL
[4]
  MIC: 32 µg/mL
[5]
  MIC: 512 µg/mL
[6]
  MIC: 32 µg/mL
Escherichia coli CCUG^T; E. coli CCUG^T
  Potentiation fold: ≥16
  MIC in presence of colistin: 32 µg/mL
Escherichia coli CCUG^T; [7]
  MIC: > 512 µg/mL
[1]; A. baumannii ATCC 17978
  Potentiation fold: ≥16
  MIC in presence of colistin: 32 µg/mL
[1]; [8]
  MIC: > 512 µg/mL
[2]; K. pneumoniae ATCC 13833
  Potentiation fold: ≥16
  MIC in presence of colistin: 32 µg/mL
[2]; [9]
  MIC: > 512 µg/mL

## CC(C)n1c(=O)c(C(=O)NC(c2ccccc2)c2ccccc2)c(O)c2nn(C)cc21 [Iab, 4,5-Dihydro-N-(diphenylmethyl)-7-hydroxy-2-methyl-5-oxo-4-(2-propyl)-2H-pyrazolo[4,3-b]pyridin-6-carboxamide]
[3]
  MIC: 16 µg/mL
[4]
  MIC: 32 µg/mL
[5]
  MIC: 32 µg/mL
[6]
  MIC: 32 µg/mL
Escherichia coli CCUG^T; E. coli CCUG^T
  Potentiation fold: ≥32
  MIC in presence of colistin: 16 µg/mL
Escherichia coli CCUG^T; [7]
  MIC: > 512 µg/mL
[1]; A. baumannii ATCC 17978
  Potentiation fold: ≥32
  MIC in presence of colistin: 16 µg/mL
[1]; [8]
  MIC: > 512 µg/mL
[2]; K. pneumoniae ATCC 13833
  Potentiation fold: ≥32
  MIC in presence of colistin: 16 µg/mL
[2]; [9]
  MIC: > 512 µg/mL

## CCCCn1c(=O)c(C(=O)NC(C)(C)C)c(O)c2nn(C)cc21 [Iaf, 4-(1-Butyl)-4,5-dihydro-N-(1,1-dimethylethyl)-7-hydroxy-2-methyl-5-oxo-2H-pyrazolo[4,3-b]pyridin-6-carboxamide]
[3]
  MIC: 128 µg/mL
[4]
  MIC: 64 µg/mL
[5]
  MIC: 512 µg/mL
[6]
  MIC: 64 µg/mL
Escherichia coli CCUG^T; E. coli CCUG^T
  Potentiation fold: ≥16
  MIC in presence of colistin: 32 µg/mL
Escherichia coli CCUG^T; [7]
  MIC: > 512 µg/mL
[1]; A. baumannii ATCC 17978
  Potentiation fold: ≥8
  MIC in presence of colistin: 64 µg/mL
[1]; [8]
  MIC: > 512 µg/mL
[2]; K. pneumoniae ATCC 13833
  Potentiation fold: ≥16
  MIC in presence of colistin: 32 µg/mL
[2]; [9]
  MIC: > 512 µg/mL

## CC(C)n1c(=O)c(C(=O)NC2CCCCCCC2)c(O)c2nn(C)cc21 [Iz, N-Cyclooctyl-4,5-dihydro-7-hydroxy-2-methyl-5-oxo-4-(2-propyl)-2H-pyrazolo[4,3-b]pyridin-6-carboxamide]
[3]
  MIC: 32 µg/mL
[4]
  MIC: 32 µg/mL
[5]
  MIC: 64 µg/mL
[6]
  MIC: 16 µg/mL
Escherichia coli CCUG^T; E. coli CCUG^T
  Potentiation fold: ≥64
  MIC in presence of colistin: 8 µg/mL
Escherichia coli CCUG^T; [7]
  MIC: > 512 µg/mL
[1]; A. baumannii ATCC 17978
  Potentiation fold: ≥64
  MIC in presence of colistin: 8 µg/mL
[1]; [8]
  MIC: > 512 µg/mL
[2]; K. pneumoniae ATCC 13833
  Potentiation fold: ≥32
  MIC in presence of colistin: 16 µg/mL
[2]; [9]
  MIC: > 512 µg/mL

## CCCCn1c(=O)c(C(=O)NC23CC4CC(CC(O)(C4)C2)C3)c(O)c2nn(C)cc21 [Ia, 4-(1-Butyl)-4,5-dihydro-7-hydroxy-N-(1-hydroxyadamantan-3-yl)-2-methyl-5-oxo-2H-pyrazolo[4,3-b]pyridin-6-carboxamide]
Escherichia coli CCUG^T; E. coli CCUG^T
  Potentiation fold: ≥16
  MIC in presence of colistin: 32 µg/mL
Escherichia coli CCUG^T
  MIC: > 512 µg/mL
[1]; A. baumannii ATCC 17978
  Potentiation fold: ≥16
  MIC in presence of colistin: 32 µg/mL
[1]
  MIC: > 512 µg/mL
[2]; K. pneumoniae ATCC 13833
  Potentiation fold: ≥8
  MIC in presence of colistin: 64 µg/mL
[2]
  MIC: > 512 µg/mL

## CCCCn1c(=O)c(C(=O)NCc2ccc(F)cc2)c(O)c2nn(C)cc21 [Iac, 4-(1-Butyl)-4,5-dihydro-N-[(4-fluorophenyl)methyl]-7-hydroxy-2-methyl-5-oxo-2H-pyrazolo[4,3-b]pyridin-6-carboxamide]
[3]
  MIC: 64 µg/mL
[4]
  MIC: 128 µg/mL
[5]
  MIC: 64 µg/mL
[6]
  MIC: 32 µg/mL

## CCCn1c(=O)c(C(=O)NC23CC4CC(CC(C4)C2)C3)c(O)c2nn(CCOC(C)=O)cc21 [Ir, 2-(2-Acetoxyethyl)-N-(adamantan-1-yl)-4,5-dihydro-7-hydroxy-5-oxo-4-(1-propyl)-2H-pyrazolo[4,3-b]pyridin-6-carboxamide]
Escherichia coli CCUG^T; E. coli CCUG^T
  Potentiation fold: ≥8
  MIC in presence of colistin: 64 µg/mL
Escherichia coli CCUG^T
  MIC: > 512 µg/mL
[1]; A. baumannii ATCC 17978
  Potentiation fold: ≥16
  MIC in presence of colistin: 32 µg/mL
[1]
  MIC: > 512 µg/mL
[2]; K. pneumoniae ATCC 13833
  Potentiation fold: ≥8
  MIC in presence of colistin: 64 µg/mL
[2]
  MIC: > 512 µg/mL

## CCCCn1c(=O)c(C(=O)NC(c2ccccc2)c2ccccc2)c(O)c2nn(C)cc21 [Iu, 4-(1-Butyl)-4,5-dihydro-N-(diphenylmethyl)-7-hydroxy-2-methyl-5-oxo-2H-pyrazolo[4,3-b]pyridin-6-carboxamide]
Escherichia coli CCUG^T; E. coli CCUG^T
  Potentiation fold: ≥8
  MIC in presence of colistin: 64 µg/mL
Escherichia coli CCUG^T; [7]
  MIC: > 512 µg/mL
[1]; A. baumannii ATCC 17978
  Potentiation fold: ≥16
  MIC in presence of colistin: 32 µg/mL
[1]; [8]
  MIC: > 512 µg/mL
[2]; K. pneumoniae ATCC 13833
  Potentiation fold: ≥8
  MIC in presence of colistin: 64 µg/mL
[2]; [9]
  MIC: > 512 µg/mL
